Among the data in patent US12686687B2, “Compounds and uses thereof” (Foghorn Therapeutics Inc., priority 2019, dated 2026) are DC50 values, retold here.

This experiment deals with T1, Nanoluciferase-BRD9 fusion protein (3×FLAG-NLuc-BRD9) in SYO-1 cells (Homo sapiens, UniProt Q9H8M2).
T1 construct: expressed in transfected cells; host or cells: SYO-1
T1 sequence (Q9H8M2 1-597): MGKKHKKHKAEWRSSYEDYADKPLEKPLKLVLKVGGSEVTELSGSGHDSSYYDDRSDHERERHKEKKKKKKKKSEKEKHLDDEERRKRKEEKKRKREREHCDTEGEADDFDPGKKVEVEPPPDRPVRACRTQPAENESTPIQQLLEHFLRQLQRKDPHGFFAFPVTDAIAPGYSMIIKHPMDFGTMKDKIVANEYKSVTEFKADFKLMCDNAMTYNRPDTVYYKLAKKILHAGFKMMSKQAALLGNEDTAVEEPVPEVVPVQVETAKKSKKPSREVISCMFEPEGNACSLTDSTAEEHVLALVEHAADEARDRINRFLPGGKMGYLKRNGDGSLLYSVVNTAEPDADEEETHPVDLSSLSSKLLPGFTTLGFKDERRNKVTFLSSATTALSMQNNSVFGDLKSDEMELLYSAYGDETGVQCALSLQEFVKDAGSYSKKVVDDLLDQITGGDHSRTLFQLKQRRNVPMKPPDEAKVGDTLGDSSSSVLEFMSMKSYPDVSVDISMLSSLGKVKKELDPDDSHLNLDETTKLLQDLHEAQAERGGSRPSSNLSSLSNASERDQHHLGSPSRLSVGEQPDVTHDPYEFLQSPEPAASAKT
Briefly: SYO1 BRD9 NanoLuc degradation assay. In kind it is cell-based. The note with it: Table 6C; SYO-1 cells expressing 3×FLAG-NLuc-BRD9, 6 hours incubation, 1 μM top dose; read-out: SYO1 BRD9-NanoLuc degradation IC50. The procedure, abridged: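 Stable SYO-1 line expressing 3×FLAG-NLuc-BRD9 was seeded at 8000 cells/well, then treated next day for 6 h with 10-point 3-fold dilutions (top 1 μM final). Nano-Glo luminescence was read. % inhibition was normalised to DMSO (high control) and 1 μM reference BRD9 degrader (low control).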
Take `COc1cc(-c2cn(C)c(=O)c3cc(C(=O)N[C@@H]4CCN(CCN5CCN(c6ccc7c(c6)C(=O)N(C6CCC(=O)NC6=O)C7)CC5)CC4(F)F)sc23)cc(OC)c1CN(C)C` (stereo partly drawn) [Compound D166]: the DC50 was below 10 nM.
With `COc1cc(-c2cn(C)c(=O)c3cc(C(=O)N[C@H]4CCN(C5CCN(c6ccc7c(c6)C(=O)N(C6CCC(=O)NC6=O)C7)CC5)CC4(F)F)sc23)cc(OC)c1CN(C)C` (stereo partly drawn) [Compound D167] the figure was below 10 nM; with `COc1cc(-c2cn(C)c(=O)c3ccsc23)cc(OC)c1CN1CC(Oc2ccc3c(c2)C(=O)N(C2CCC(=O)NC2=O)C3)C1` (stereo not drawn) [Compound D168], below 10 nM; with `COc1cc(-c2cn(C)c(=O)c3ccsc23)cc(OC)c1CN1CC(Oc2ccc3c(c2)C(=O)N(C2CCC(=O)NC2=O)C3=O)C1` (stereo not drawn) [Compound D169], below 10 nM.
On to `COc1cc(-c2cn(C)c(=O)c3ccsc23)cc(OC)c1CN1CC(Oc2ccc3c(c2)CN(C2CCC(=O)NC2=O)C3=O)C1` (stereo not drawn) [Compound D170], for which the DC50 was below 10 nM.
Next, `COc1cc(-c2c(C)n(C)c(=O)c3cc(C(=O)NC4CCN(CCN5CCN(c6ccc7c(c6)C(=O)N(C6CCC(=O)NC6=O)C7)CC5)CC4(F)F)sc23)cc(OC)c1CN(C)C` (stereo not drawn) [Compound D171]: above 10 nM; `COc1cc(-c2c(C)n(C)c(=O)c3cc(C(=O)NC4CCN(C)CC4(F)F)sc23)cc(OC)c1CN1CC(CN2CCC3(CC2)CN(c2ccc4c(c2)C(=O)N(C2CCC(=O)NC2=O)C4)C3)C1` (stereo not drawn) [Compound D172]: above 1000 nM; `COc1cc(-c2cn(C)c(=O)c3cc(C)sc23)cc(OC)c1CN1CCC(CN2CCC3(CC2)CC(Oc2ccc4c(c2)C(=O)N(C2CCC(=O)NC2=O)C4=O)C3)CC1` (stereo not drawn) [Compound D173]: below 10 nM.
Next, `COc1cc(-c2cn(C)c(=O)c3ccsc23)cc(OC)c1CN1CCC(CN2CCC3(CC2)CC(Oc2ccc4c(c2)C(=O)N(C2CCC(=O)NC2=O)C4)C3)CC1` (stereo not drawn) [Compound D174]: below 10 nM.
Turning to `COc1cc(-c2cn(C)c(=O)c3cc(C(=O)NC4CCN(CCN5CCC6(CC5)CN(c5ccc7c(c5)C(=O)N(C5CCC(=O)NC5=O)C7)C6)CC4(F)F)sc23)cc(OC)c1CN(C)C` (stereo not drawn) [Compound D175], the DC50 was below 10 nM.
For the compound `COc1cc(-c2cn(C)c(=O)c3ccsc23)cc(OC)c1CN1CCN(c2ccc3c(c2)C(=O)N(C2CCC(=O)NC2=O)C3)CC12CCC2` (stereo not drawn) [Compound D176], the DC50 was below 10 nM.
With `COc1cc(-c2cn(C)c(=O)c3cc(C(=O)NC4CN(c5ccc6c(c5)C(=O)N(C5CCC(=O)NC5=O)C6)CC4(F)F)sc23)cc(OC)c1CN(C)C` (stereo not drawn) [Compound D177], the DC50 is below 10 nM.
Next, `COc1cc(-c2cn(C)c(=O)c3ccsc23)cc(OC)c1CN1CCC2(CC1)CN(c1ccc3c(c1)CN(C1CCC(=O)NC1=O)C3=O)C2` (stereo not drawn) [Compound D178]: below 10 nM; `COc1cc(-c2cn(C)c(=O)c3cc(C(=O)NC4CCN(C5CCN(c6ccn7c(=O)n(C8CCC(=O)NC8=O)nc7c6)CC5)CC4(F)F)sc23)cc(OC)c1CN(C)C` (stereo not drawn) [Compound D179]: below 10 nM; `COc1cc(-c2cn(C)c(=O)c3cc(C(=O)NC4CN(c5ccc6c(c5)CN(C5CCC(=O)NC5=O)C6=O)CC4(F)F)sc23)cc(OC)c1CN(C)C` (stereo not drawn) [Compound D180]: below 10 nM.
Next, `COc1cc(-c2cn(C)c(=O)c3cc(C(=O)NC4CN(C5CCN(c6ccc7c(c6)CN(C6CCC(=O)NC6=O)C7=O)CC5)CC4(F)F)sc23)cc(OC)c1CN(C)C` (stereo not drawn) [Compound D181]: below 10 nM; `COc1cc(-c2cn(C)c(=O)c3cc(C(=O)NC4CN(C5CCN(c6ccc7c(c6)C(=O)N(C6CCC(=O)NC6=O)C7)CC5)CC4(F)F)sc23)cc(OC)c1CN(C)C` (stereo not drawn) [Compound D182]: below 10 nM; `COc1cc(-c2cn(C)c(=O)c3ccsc23)cc(OC)c1CN1CCC2(CC1)CN(c1ccc3c(c1)C(=O)N(C1CCC(=O)NC1=O)C3=O)C2` (stereo not drawn) [Compound D183]: below 10 nM.
With `COc1cc(-c2cn(C)c(=O)c3cc(C)sc23)cc(OC)c1CN1CCC(CN2CCC3(CC2)CN(c2ccc4c(c2)C(=O)N(C2CCC(=O)NC2=O)C4=O)C3)CC1` (stereo not drawn) [Compound D184] the figure was below 10 nM; with `COc1cc(-c2cn(C)c(=O)c3ccsc23)cc(OC)c1CN1CCC(CN2CCC3(CC2)CN(c2ccc4c(c2)C(=O)N(C2CCC(=O)NC2=O)C4=O)C3)CC1` (stereo not drawn) [Compound D185], below 10 nM.
As to `COc1cc(-c2cn(C)c(=O)c3ccsc23)cc(OC)c1CN1CCC2(CC1)CN(c1ccc3c(c1)C(=O)N(C1CCC(=O)NC1=O)C3)C2` (stereo not drawn) [Compound D186], the DC50 is below 10 nM.
For `COc1cc(-c2cn(C)c(=O)c3cc(C(=O)NC4CN(C5CCN(c6ccc7c(c6)C(=O)N(C6CCC(=O)NC6=O)C7=O)CC5)CC4(F)F)sc23)cc(OC)c1CN(C)C` (stereo not drawn) [Compound D187], the DC50 was below 10 nM.
For `COc1cc(-c2cn(C)c(=O)c3cc(C(=O)NC4CCN(C)CC4(F)F)sc23)cc(OC)c1CN1CC(CN2CCC3(CC2)CN(c2ccc4c(c2)C(=O)N(C2CCC(=O)NC2=O)C4)C3)C1` (stereo not drawn) [Compound D188], the DC50 was below 10 nM.
Take `COc1cc(-c2cn(C)c(=O)c3ccsc23)cc(OC)c1CN1CCC(CN2CCC3(CC2)CC(Oc2ccc4c(c2)C(=O)N(C2CCC(=O)NC2=O)C4=O)C3)CC1` (stereo not drawn) [Compound D189]: the DC50 was below 10 nM.
For the compound `COc1cc(-c2cn(C)c(=O)c3cc(C(=O)NC4CN(c5ccc6c(c5)C(=O)N(C5CCC(=O)NC5=O)C6=O)CC4(F)F)sc23)cc(OC)c1CN(C)C` (stereo not drawn) [Compound D190], the DC50 was below 10 nM.
Regarding `COc1cc(-c2cn(C)c(=O)c3cc(C(=O)NC4CCN(C5CN(c6ccc7c(c6)C(=O)N(C6CCC(=O)NC6=O)C7=O)C5)CC4(F)F)sc23)cc(OC)c1CN(C)C` (stereo not drawn) [Compound D191], the DC50 is below 10 nM.
With `COc1cc(-c2cn(C)c(=O)c3cc(C(=O)NC4CCN(c5ccc6c(c5)C(=O)N(C5CCC(=O)NC5=O)C6=O)CC4(F)F)sc23)cc(OC)c1CN(C)C` (stereo not drawn) [Compound D192] the figure was below 10 nM; with `COc1cc(-c2cn(C)c(=O)c3sccc23)cc(OC)c1CN1CCC(CN2CCC3(CC2)CC(Oc2ccc4c(c2)CN(C2CCC(=O)NC2=O)C4=O)C3)CC1` (stereo not drawn) [Compound D193], below 10 nM.
Regarding `COc1cc(-c2cn(C)c(=O)c3ccsc23)cc(OC)c1CN1CCN(c2ccc3c(c2)C(=O)N(C2CCC(=O)NC2=O)C3)CC1` (stereo not drawn) [Compound D194], the DC50 was below 10 nM.
With `COc1cc(-c2cn(C)c(=O)c3cc(C(=O)NC4CCN(CCN5CCC(c6ccc7c(c6)CN(C6CCC(=O)NC6=O)C7=O)CC5)CC4(F)F)sc23)cc(OC)c1CN(C)C` (stereo not drawn) [Compound D195] the figure was below 10 nM; with `COc1cc(-c2cn(C)c(=O)c3cc(C(=O)NC4CCN(CCN5CCN(c6ccc7c(c6)CN(C6CCC(=O)NC6=O)C7=O)CC5)CC4(F)F)sc23)cc(OC)c1CN(C)C` (stereo not drawn) [Compound D196], below 10 nM.
With `COc1cc(-c2cn(C)c(=O)c3sccc23)cc(OC)c1CN1CCC(CN2CCC3(CC2)CC(Oc2ccc4c(c2)CN(C2CCC(=O)NC2=O)C4=O)C3)CC1` (stereo not drawn) [Compound D199] the figure was below 10 nM; with `COc1cc(-c2cn(C)c(=O)c3cc(C(=O)NC4CCN(CCN5CCN(c6ccc7c(c6)C(=O)N(C6CCC(=O)NC6=O)C7)CC5)CC4(F)F)sc23)cc(OC)c1CN(C)C` (stereo not drawn) [Compound D200], below 10 nM.
Next, `COc1cc(-c2cn(C)c(=O)c3sncc23)cc(OC)c1CN1CC(CN2CCC3(CC2)CN(c2ccc4c(c2)C(=O)N(C2CCC(=O)NC2=O)C4)C3)C1` (stereo not drawn) [Compound D201]: below 10 nM; `COc1cc(-c2cn(C)c(=O)c3ncsc23)cc(OC)c1CN1CCC2(CC1)CN(c1ccc3c(c1)C(=O)N(C1CCC(=O)NC1=O)C3=O)C2` (stereo not drawn) [Compound D202]: below 10 nM; `COc1cc(-c2cn(C)c(=O)c3sncc23)cc(OC)c1CN1CCC2(CC1)CN(c1ccc3c(c1)C(=O)N(C1CCC(=O)NC1=O)C3)C2` (stereo not drawn) [Compound D203]: below 10 nM.
Regarding `COc1cc(-c2cn(C)c(=O)c3ncsc23)cc(OC)c1CN1CCC2(CC1)CN(c1ccc3c(c1)C(=O)N(C1CCC(=O)NC1=O)C3)C2` (stereo not drawn) [Compound D204], the DC50 was above 100 nM.
Next, `COc1cc(-c2cn(C)c(=O)c3ncsc23)cc(OC)c1CN1CC(Oc2ccc3c(c2)CN(C2CCC(=O)NC2=O)C3=O)C1` (stereo not drawn) [Compound D206]: below 10 nM.
Consider `COc1cc(-c2cn(C)c(=O)c3sccc23)cc(OC)c1CN1CCC2(CC1)CN(c1ccc3c(c1)C(=O)N(C1CCC(=O)NC1=O)C3)C2` (stereo not drawn) [Compound D207], for which the DC50 was below 10 nM.
Take `COc1cc(-c2cn(C)c(=O)c3cscc23)cc(OC)c1CN1CCC2(CC1)CN(c1ccc3c(c1)C(=O)N(C1CCC(=O)NC1=O)C3=O)C2` (stereo not drawn) [Compound D208]: the DC50 was below 10 nM.
Turning to `COc1cc(-c2cn(C)c(=O)c3cnsc23)cc(OC)c1CN1CCC2(CC1)CN(c1ccc3c(c1)C(=O)N(C1CCC(=O)NC1=O)C3=O)C2` (stereo not drawn) [Compound D209], the DC50 is below 10 nM.
As for `Cn1cc(-c2cccc(C(F)(F)F)c2)c2oc(C(=O)NC3CCN(c4ccc5c(c4)C(=O)N(C4CCC(=O)NC4=O)C5)CC3)cc2c1=O` (stereo not drawn) [Compound D211], the DC50 is above 10 nM.
